# Assay results reported in patent US10711011B2, “Substituted oxazolidines as anti-bacterial agents” (BUGWORKS RESEARCH, INC., priority 2016, dated 2020).
# Tests used:
# A. baumannii ATCC 19606 = experiment: Minimum Inhibitory Concentration (MIC) in LB media; format: cell-based, Acinetobacter baumannii; settings: for Minimum Inhibitory Concentration A. baumannii ATCC 19606: LB Media; for MIC: Acinetobacter baumannii, ATCC19606, LB Media
# From the text: (§1) The compounds of Formula I are of interest due to their potent antibacterial effects. The ability of the invention compounds disclosed herein to achieve an antibacterial effect may be evaluated with regard to their ability to inhibit the growth of bacterial species like Escherichia coli ATCC 25922, Staphylococcus aureus ATCC 29213, Klebsiella pneumoniae ATCC 13883, Acinetobacter baumannii ATCC 19606, Pseudomonas aurigenosa ATCC 27853, Enterococcus faecalis ATCC 29212 and Enterococcus faecalis ATCC 29212 using an assay based on the following Minimum Inhibitory Concentration (MIC) protocol:
# (§2) The test bacteria are grown in Luria Bertani Broth (HIMEDIA M1245), 25 grams of the powder is dissolved in 1000 ml distilled water and sterilized by autoclaving at 15 lbs pressure (121° C.) for 20 minutes. The medium sterility is checked by incubating at 37° C. for a period of 48 h.
# (§3) Bacterial cultures that are stored as glycerol stocks at −80° C. are sub cultured on LB agar plates to obtain isolated colonies. A single colony of each strain is cultured in LB broth. The cultures are incubated at 37° C., 200 rpm till they reach an optical density (OD at 600 nm) of 0.8 to 1. […] Test compounds are dissolved in dimethyl sulfoxide (DMSO) to a stock concentration of 4 mg/ml. A twofold dilution series of this DMSO stock is prepared in a 96 well V bottom microtitre plate from rows A to H. A 3 μL volume of these dilutions are transferred to a 96-well flat bottom microtitre assay plate. Controls to monitor the effects of DMSO and media sterility are included. Each well is inoculated with 150 μL of the above diluted culture. The plates are incubated at 37° C. overnight in a humidified incubator. The following morning, the plates are read using a Spectrophotometer at 600 nm wavelength. […] The antibacterial activity (MIC) determined against representative Gram positive (S. aureus, E. faecalis) and Gram negative (E. coli, P. aurigenosa, K. pneumoniae and A. baumannii) pathogen were reported Table 1.
# S. aureus ATCC 29213 = experiment: Minimum Inhibitory Concentration (MIC) in LB media; format: cell-based, Staphylococcus aureus; settings: for Minimum Inhibitory Concentration S. aureus ATCC 29213: LB Media; for MIC: Staphylococcus aureus, ATCC29213, LB Media
# From the text: as §1, §2, §3
# E. faecalis ATCC 29212 = experiment: Minimum Inhibitory Concentration (MIC) in LB media; format: cell-based, Enterococcus faecalis; settings: for MIC: Enterococcus faecalis, ATCC29212
# From the text: as §1, §2, §3
# K. pneumoniae ATCC 13883 = experiment: Minimum Inhibitory Concentration (MIC) in LB media; format: cell-based, Klebsiella pneumoniae; settings: for MIC: Klebsiella pneumoniae, ATCC13883, LB Media
# From the text: as §1, §2, §3
# E. coli DNA gyrase = E. coli DNA gyrase (Escherichia coli, UniProt P0AES4+P0AES6); experiment: biochemical; settings: supercoiling assay
# E. coli ATCC 25922 = experiment: Minimum Inhibitory Concentration (MIC) in LB media; format: cell-based, Escherichia coli; settings: for MIC: Escherichia coli, ATCC25922, LB Media
# From the text: as §1, §2, §3
# P. aurigenosa ATCC 27853 = experiment: Minimum Inhibitory Concentration (MIC) in LB media; format: cell-based, Pseudomonas aurigenosa; settings: for MIC: Pseudomonas, ATCC27853, LB Media
# From the text: as §1, §2, §3
# E. coli topoisomerase IV = E. coli topoisomerase IV (Escherichia coli, UniProt P0AFI2+P20083); experiment: biochemical; settings: decatenation assay; read-out: E. coli Topo IV IC50
# E. coli clinical strains = experiment: MIC50 and MIC90 studies using clinical strains (CLSI guidelines); format: cell-based
# [1] = tested on: P. aurigenosa (Pae) clinical strains; experiment: as above; format: cell-based
# [2] = tested on: A. baumannii (Aba) clinical strains; experiment: as above; format: cell-based
# [3] = tested on: K. pneumoniae (Kpn) clinical strains; experiment: as above; format: cell-based
# [4] = Escherichia coli, E. coli, 201 strains
# [5] = Acinetobacter baumannii, Aba, 169 strains
# [6] = Klebsiella pneumoniae, Kpn, 211 strains
# E. coli DNA gyrase, sequence (P0AES4 whole entry, one chain of several): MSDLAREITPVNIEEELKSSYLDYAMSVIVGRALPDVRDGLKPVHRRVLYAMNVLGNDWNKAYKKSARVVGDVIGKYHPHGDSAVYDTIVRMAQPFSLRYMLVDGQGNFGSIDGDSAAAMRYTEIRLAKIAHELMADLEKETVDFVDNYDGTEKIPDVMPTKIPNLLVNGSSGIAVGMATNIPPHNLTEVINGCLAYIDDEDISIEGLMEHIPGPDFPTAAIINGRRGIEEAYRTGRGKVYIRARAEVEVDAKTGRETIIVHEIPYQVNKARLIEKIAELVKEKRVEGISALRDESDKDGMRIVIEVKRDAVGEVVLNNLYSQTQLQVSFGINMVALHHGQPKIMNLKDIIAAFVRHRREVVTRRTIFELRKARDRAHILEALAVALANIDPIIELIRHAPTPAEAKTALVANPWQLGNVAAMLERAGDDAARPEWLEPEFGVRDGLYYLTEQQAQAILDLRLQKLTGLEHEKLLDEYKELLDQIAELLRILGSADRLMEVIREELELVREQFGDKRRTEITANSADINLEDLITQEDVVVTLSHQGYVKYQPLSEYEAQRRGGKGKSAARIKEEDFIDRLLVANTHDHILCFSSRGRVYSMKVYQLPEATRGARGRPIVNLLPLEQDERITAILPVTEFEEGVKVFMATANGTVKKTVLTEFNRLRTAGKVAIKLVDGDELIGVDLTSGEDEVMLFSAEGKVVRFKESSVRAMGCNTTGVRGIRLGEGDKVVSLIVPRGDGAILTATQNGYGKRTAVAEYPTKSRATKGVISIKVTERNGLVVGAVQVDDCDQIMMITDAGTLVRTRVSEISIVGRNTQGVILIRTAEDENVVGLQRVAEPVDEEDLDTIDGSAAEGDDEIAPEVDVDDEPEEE
# E. coli topoisomerase IV, sequence (P0AFI2 whole entry): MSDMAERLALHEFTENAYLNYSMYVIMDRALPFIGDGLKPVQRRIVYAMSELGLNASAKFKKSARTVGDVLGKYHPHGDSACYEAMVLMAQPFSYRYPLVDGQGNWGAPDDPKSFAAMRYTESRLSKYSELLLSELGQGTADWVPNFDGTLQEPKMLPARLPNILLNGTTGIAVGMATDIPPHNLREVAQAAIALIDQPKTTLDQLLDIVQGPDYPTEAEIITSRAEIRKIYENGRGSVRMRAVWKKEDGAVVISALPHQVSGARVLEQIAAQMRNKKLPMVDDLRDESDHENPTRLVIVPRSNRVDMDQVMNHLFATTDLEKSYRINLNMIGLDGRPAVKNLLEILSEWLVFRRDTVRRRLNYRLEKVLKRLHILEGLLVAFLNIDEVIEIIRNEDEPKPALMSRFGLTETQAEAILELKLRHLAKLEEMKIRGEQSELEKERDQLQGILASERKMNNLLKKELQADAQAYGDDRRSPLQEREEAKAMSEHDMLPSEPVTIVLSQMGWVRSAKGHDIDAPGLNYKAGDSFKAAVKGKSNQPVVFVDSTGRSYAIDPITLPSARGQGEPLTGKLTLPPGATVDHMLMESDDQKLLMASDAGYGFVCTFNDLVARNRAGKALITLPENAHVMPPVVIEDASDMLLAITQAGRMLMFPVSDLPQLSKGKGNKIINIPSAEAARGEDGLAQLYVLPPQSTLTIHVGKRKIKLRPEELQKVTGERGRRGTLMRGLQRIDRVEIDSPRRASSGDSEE
# E. coli topoisomerase IV, sequence (P20083 whole entry): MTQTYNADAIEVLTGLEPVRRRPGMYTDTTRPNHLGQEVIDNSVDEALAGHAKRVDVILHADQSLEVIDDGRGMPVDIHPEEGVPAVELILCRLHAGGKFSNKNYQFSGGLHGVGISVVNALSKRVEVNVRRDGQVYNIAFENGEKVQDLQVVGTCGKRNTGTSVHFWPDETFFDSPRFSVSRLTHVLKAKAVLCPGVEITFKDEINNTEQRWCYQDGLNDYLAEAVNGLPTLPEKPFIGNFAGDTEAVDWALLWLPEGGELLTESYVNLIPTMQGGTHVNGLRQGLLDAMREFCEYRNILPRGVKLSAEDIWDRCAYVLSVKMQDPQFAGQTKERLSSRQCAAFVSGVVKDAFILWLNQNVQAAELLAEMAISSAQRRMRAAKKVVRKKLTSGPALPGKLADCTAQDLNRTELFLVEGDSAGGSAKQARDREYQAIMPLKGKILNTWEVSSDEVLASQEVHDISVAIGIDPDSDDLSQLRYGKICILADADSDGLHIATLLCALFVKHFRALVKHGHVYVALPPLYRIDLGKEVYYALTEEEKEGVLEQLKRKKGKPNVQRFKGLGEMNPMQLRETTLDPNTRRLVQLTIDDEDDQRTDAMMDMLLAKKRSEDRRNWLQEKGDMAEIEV
Structure (SMILES),MIC (E. faecalis ATCC 29212) [µg/mL],MIC (K. pneumoniae ATCC 13883) [µg/mL],IC50 (E. coli DNA gyrase) [nM],MIC (E. coli ATCC 25922) [µg/mL],MIC (P. aurigenosa ATCC 27853) [µg/mL],MIC (A. baumannii ATCC 19606) [µg/mL],MIC (S. aureus ATCC 29213) [µg/mL],further results
"CN1C(=O)Cc2ccc(F)c(CNCCCC3CN(c4ccc5c(n4)NC(=O)CO5)C(=O)O3)c21 (single isomer, unassigned) [Example 9, 6-(5-(3-(((6-fluoro-1-methyl-2-oxoindolin-7-yl)methyl)amino)propyl)-2-oxooxazolidin-3-yl)-2H-pyrido[3,2-b][1,4]oxazin-3(4H)-one]",0.5,0.5,89,0.25,2,–,–,Minimum Inhibitory Concentration A. baumannii ATCC 19606 (A. baumannii ATCC 19606): 0.125 µg/mL; Minimum Inhibitory Concentration S. aureus ATCC 29213 (S. aureus ATCC 29213): 0.13 µg/mL
"CN1C(=O)Cc2ncc(F)c(CNCCCC3CN(c4ccc5c(n4)NC(=O)CO5)C(=O)O3)c21 (stereo not shown) [Example 17, 6-(5-(3-(((6-Fluoro-1-methyl-2-oxo-2,3-dihydro-1H-pyrrolo[3,2-b]pyridin-7-yl)methyl)amino)propyl)-2-oxooxazolidin-3-yl)-2H-pyrido[3,2-b][1,4]oxazin-3(4H)-one]",4,2,–,1,> 16,0.5,1,–
"CN1C(=O)Cc2ccc(F)c(CNCCCC3CN(c4ccc5c(n4)NC(=O)CO5)C(=O)O3)c21 (single isomer, unassigned) [Example 10, 6-(5-(3-(((6-fluoro-1-methyl-2-oxoindolin-7-yl)methyl)amino)propyl)-2-oxooxazolidin-3-yl)-2H-pyrido[3,2-b][1,4]oxazin-3(4H)-one]",–,–,106,–,–,–,–,Minimum Inhibitory Concentration A. baumannii ATCC 19606 (A. baumannii ATCC 19606): 0.06 µg/mL; Minimum Inhibitory Concentration S. aureus ATCC 29213 (S. aureus ATCC 29213): 0.06 µg/mL; Minimum Inhibitory Concentration E. faecalis ATCC 29212 (E. faecalis ATCC 29212): 0.5 µg/mL; Minimum Inhibitory Concentration K. pneumoniae ATCC 13883 (K. pneumoniae ATCC 13883; LB Media): 0.25 µg/mL; Minimum Inhibitory Concentration E. coli ATCC 25922 (E. coli ATCC 25922; LB Media): 0.125 µg/mL; Minimum Inhibitory Concentration P. aurigenosa ATCC 27853 (P. aurigenosa ATCC 27853; LB Media): 1 µg/mL; IC50 (E. coli topoisomerase IV): 398 nM
"CN1C(=O)Cc2ccc(F)c(CNCCCC3CN(c4ccc5c(n4)NC(=O)CO5)C(=O)O3)c21 (racemic) [Example 6, 6-(5-(3-(((6-fluoro-1-methyl-2-oxoindolin-7-yl)methyl)amino)propyl)-2-oxooxazolidin-3-yl)-2H-pyrido[3,2-b][1,4]oxazin-3(4H)-one]",0.5,0.5,56,0.25,1,0.25,0.13,IC50 (E. coli topoisomerase IV): 459 nM
"O=C(O)c1cn(C2CC2)c2cc(N3CCNCC3)c(F)cc2c1=O [Ciprofloxacin, reference compound]",0.4,0.05,–,0.012,0.1,0.4,0.4,–
"CN1C(=O)Cc2cccc(CNCCC3CN(c4ccc5c(n4)NC(=O)CO5)C(=O)O3)c21 (stereo not shown) [Example 1, 6-(5-(2-(((1-Methyl-2-oxoindolin-7-yl)methyl)amino)ethyl)-2-oxooxazolidin-3-yl)-2H-pyrido[3,2-b][1,4]oxazin-3(4H)-one]",5,10,–,2.5,40,0.6,5,–
"CCN1C(=O)Cc2ccc(F)c(CNCCC3CN(c4ccc5c(n4)NC(=O)CO5)C(=O)O3)c21 (stereo not shown) [Example 7, 6-(5-(2-(((1-Ethyl-6-fluoro-2-oxoindolin-7-yl)methyl)amino)ethyl)-2-oxooxazolidin-3-yl)-2H-pyrido[3,2-b][1,4]oxazin-3(4H)-one]",0.6,5,–,1.25,20,0.3,0.15,–
"CN1C(=O)Cc2ccc(F)c(CNCCC3CN(c4ccc5c(n4)NC(=O)CO5)C(=O)O3)c21 (stereo not shown) [Example 2, 6-(5-(2-(((6-Fluoro-1-methyl-2-oxoindolin-7-yl)methyl)amino)ethyl)-2-oxooxazolidin-3-yl)-2H-pyrido[3,2-b][1,4]oxazin-3(4H)-on]",1.25,2.5,360,1.25,10,0.3,0.6,–
"CN1C(=O)Cc2ccc(F)c(C(O)CNCCC3CN(c4ccc5c(n4)NC(=O)CO5)C(=O)O3)c21 (stereo not shown) [Example 15, 6-(5-(2-((2-(6-fluoro-1-methyl-2-oxoindolin-7-yl)-2-hydroxyethyl)amino)ethyl)-2-oxooxazolidin-3-yl)-2H-pyrido[3,2-b][1,4]oxazin-3(4H)-one]",2,2,135,1,2,4,1,–
"Cn1c(=O)oc2ccc(F)c(CCNCCC3CN(c4ccc5c(n4)NC(=O)CO5)C(=O)O3)c21 (stereo not shown) [Example 16, 6-(5-(2-((2-(5-Fluoro-3-methyl-2-oxo-2,3-dihydrobenzo[d]oxazol-4-yl)ethyl)amino)ethyl)-2-oxooxazolidin-3-yl)-2H-pyrido[3,2-b][1,4]oxazin-3(4H)-one]",4,1,–,0.5,4,0.5,4,–
"C[C@@H](O)[C@H]1C(=O)N2C(C(=O)O)=C(S[C@@H]3CN[C@H](C(=O)N(C)C)C3)[C@H](C)[C@H]12 [Meropenem, reference compound]",–,–,–,–,–,–,–,"MIC ATCC25922 (E. coli clinical strains; E. coli reference strain ATCC25922, no unit in this row (MIC50/MIC90 rows: μg/ml)): 0.06 µg/mL; Minimum (MIC) (E. coli clinical strains; E. coli, 201 strains, unit inferred): 0.03 µg/mL; MIC50 (E. coli clinical strains; [4]): 0.06 µg/mL; MIC90 (E. coli clinical strains; [4]): 4 µg/mL; MIC ATCC27853 ([1]; Pae reference strain ATCC27853, unit inferred): 0.5 µg/mL; MIC50 ([1]; Pae, 215 strains): 2 µg/mL; MIC90 ([1]; Pae, 215 strains): 8 µg/mL; Minimum (MIC) ([1]; Pae, 215 strains, unit not given, in µg/mL): 0.03; MIC ATCC19606 ([2]; Aba reference strain ATCC19606, unit inferred): 0.5 µg/mL; Minimum (MIC) ([2]; Aba, 169 strains, unit not given, in µg/mL): 0.03125; MIC50 [2, 5]: 8 µg/mL; MIC90 [2, 5]: 32 µg/mL; MIC50 [3, 6]: 1 µg/mL; MIC90 [3, 6]: 16 µg/mL; MIC ATCC13883 ([3]; Kpn reference strain ATCC13883, unit inferred): 0.06 µg/mL; Minimum (MIC) ([3]; Kpn, 211 strains, unit inferred): 0.03 µg/mL"
"CN1C(=O)Cc2ccc(F)c(CCNCCC3CN(c4ccc5c(n4)NC(=O)CO5)C(=O)O3)c21 (racemic) [Example 11, 6-(5-(2-((2-(6-fluoro-1-methyl-2-oxoindolin-7-yl)ethyl)amino)ethyl)-2-oxooxazolidin-3-yl)-2H-pyrido[3,2-b][1,4]oxazin-3(4H)-one]",0.13,0.125,55,0.06,0.5,0.03,0.03,–
"CN1C(=O)Cc2ccc(F)c(CNCCC3CN(c4ccc5c(c4)NC(=O)CO5)C(=O)O3)c21 (stereo not shown) [Example 3, 6-(5-(2-(((6-fluoro-1-methyl-2-oxoindolin-7-yl)methyl)amino)ethyl)-2-oxooxazolidin-3-yl)-2H-benzo[b][1,4]oxazin-3(4H)-one]",1.25,5,–,1.25,20,0.6,0.6,–
"Cc1ncc(N2CC(CCNCc3c(F)ccc4c3N(C)C(=O)C4)OC2=O)cc1C#N (stereo not shown) [Example 5, 5-(5-(2-(((6-Fluoro-1-methyl-2-oxoindolin-7-yl)methyl)amino)ethyl)-2-oxooxazolidin-3-yl)-2-methylnicotinonitrile]",80,> 80,–,80,> 80,40,80,–
"CN1C(=O)C(C)(C)c2ccc(F)c(CNCCC3CN(c4ccc5c(n4)NC(=O)CO5)C(=O)O3)c21 (stereo not shown) [Example 4, 6-(5-(2-(((6-fluoro-1,3,3-trimethyl-2-oxoindolin-7-yl)methyl)amino)ethyl)-2-oxooxazolidin-3-yl)-2H-pyrido[3,2-b][1,4]oxazin-3(4H)-one]",> 80,> 80,14000,> 80,> 80,> 80,> 80,–
